The results in this text go back to US7632972B2, “Compounds and methods for treatment of cancer and modulation of programmed cell death for melanoma and other cancer cells” (The Board of Trustees of the University of Illionis, priority 2003, dated 2009).

The subject of assay [1] is U-937 cells. The experiment in a line: cells. It is filed as cell-based, human. The following applies: Homo sapiens; Table 13, U-937.
Assay [2] concerns UACC-62. The experiment in a line: Death induction in melanoma cell line. The class given is cell-based, human. The method, then: (§1) Given the interesting and somewhat unusual trait of G1 arrest, compounds x and y were tested for their ability to induce death in two melanoma cell lines: UACC-62 (human), and B16-F10 (mouse). […] Compounds x and y were also submitted for testing in the NCl 60-cell line assay. […] The triphenylamides (TPAs) induce apoptosis in these melanoma cell lines.

Assay [3] relates to B16-F10. The experiment in a line: Death induction in melanoma cell line. It is filed as cell-based, mouse. The method, then: as §1
Assay [4] has as its system human bone marrow cells. Kind of assay: Toxicity to bone marrow cells of a healthy donor, MTS bioreduction after 72 hours. The class given is cell-based. The following applies: Bone marrow cell, Table 13, bone marrow cells of healthy donor. The text has this:
Specificity for cancer cells. The vast majority of anti-cancer drugs are toxic to all rapidly dividing cell types, often leading to deleterious side effects and a reduced therapeutic window. For instance, hematopoietic bone marrow is responsible for the production of red and white blood cells, and the anemia observed upon treatment with certain chemotherapy agents is in a large part due to the toxicity of the anti-cancer drugs on cells in the human bone marrow. Thus, to determine the relative effect of the triphenylamides on melanoma versus normal cells, cells derived from the human bone marrow of a healthy donor were used; measurement of the effect on healthy bone marrow cells can assist in assessing the toxicity of putative anti-cancer agents. (17-20) These cells were treated with increasing concentrations of the compounds shown in Table 13, and cell viability was evaluated after 72 hours using the MTS bioreduction assay. The data in Table 13 indicate that several of the triphenyl amides have selective toxicity to melanoma cells versus the human bone marrow cells.

For assay [5], the system named is HL-60 cells. The experiment in a line: Determination of IC50 values, cell death by MTS/PMS after 72 h. The following applies: Homo sapiens, HL-60, read-out: HL-60.
Procedure: General Cell Culture Conditions: U-937 and HL-60 cell lines were grown in RPMI 1640 supplemented with 10% FBS and incubated at 37° C. in a 5% CO2, 95% air atmosphere and were split every two to three days as necessary.
Cells were then resuspended in RPMI 1640+10% FBS, counted using a hemocytometer and diluted so that 10,000 cells were seeded in to each well of a Corning 96-well flat bottom microtiter plate (Fisher, Chicago Ill.). Media was then added to bring the total volume of each well to 100 μL. Each compound was weighed and then diluted with EtOH to make a 100 mM stock solution. The compounds were added at 9 or more different concentration in 1 μL of EtOH. After a 72 h incubation (37° C. in a 5% CO2, 95% air atmosphere) cell death was quantitated by addition of 20 μL of the MTS/PMS CellTiter 96 Cell Proliferation Assay reagent (Promega, Madison Wis.) to each well. The plates were incubated at 37° C. for approximately 1 hour until the colored product formed and the absorbance was then measured at 490 nm in a Spectra Max Plus 384 plate reader (Molecular Devices, Sunnyvale Calif.). The IC50 was taken as the concentration that caused 50% cell death.
Assay [6] concerns U-937 cells. The experiment in a line: High-throughput cell death assay on library members (MTS/PMS). It is filed as cell-based, human. The following applies: library members at 100 μM, 24 hours. On the procedure: A three-tiered system was devised to identify compounds that selectively induce apoptosis in cancer cells. First, all compounds were screened at 100 μM in a high-throughput manner for their ability to induce death in two cancer cell lines, HL-60 (leukemia) and U-937 (lymphoma).
Test compounds were transferred into the wells using a 96-pin transfer apparatus (V & P Scientific, San Diego Calif.) that transfers 0.2 μL of compound. The compounds were made up as 50 mM stock solutions in 100% EtOH, so one transfer gave a final concentration of 100 μM. Controls were performed in which only EtOH (containing no compound) was pin-transferred into wells containing cells. The cells were incubated with the compounds for 24 hours, and then cell death was quantitated.

The mark [7] stands for this setting: Homo sapiens, Table 13, UACC-62 melanoma, read-out: UACC-62.
Where [8] appears, read: Mus musculus, B16-F10, Table 13, B16F10 melanoma, read-out: B16F10.
Where [9] appears, read: UACC-62, human melanoma cell line, read-out: IC50, UACC-62.
[10] abbreviates: B16-F10, mouse melanoma cell line, read-out: IC50, BF16-F10.

Where two headings read alike, the source gives them in different places.

As to `O=C(NC1CCCc2ccccc21)C(c1ccccc1)(c1ccccc1)c1ccccc1` (centres unmarked), the IC50 in assay [1] came out at 1250 nM; in assay [2] (setting [7]), 1770 nM; in assay [3] (setting [8]), 980 nM; in assay [4], 500 nM; in assay [5], 2210 nM.

Turning to `COc1ccc(CNC(=O)C(c2ccccc2)(c2ccccc2)c2ccccc2)cc1`, the IC50 was 8160 nM in assay [1]; 690 nM in assay [2] (setting [7]); 600 nM in assay [3] (setting [8]); 4770 nM in assay [4]; 10500 nM in assay [5].

With `O=P1(N(CCCl)CCCl)NCCCO1` (centres unmarked) [Cyclophosphamide], the IC50 in assay [2] (Homo sapiens, UACC-62, read-out: UACC-62) is over 100000 nM; in assay [3] (Mus musculus, B16-F10, read-out: B16F10), over 100000 nM.

Regarding `O=C(NC1C2CC3CC(C2)CC1C3)C(c1ccccc1)(c1ccccc1)c1ccccc1` (centres unmarked), the IC50 amounted to 490 nM in assay [1]; 15300 nM in assay [2] (setting [7]); 7410 nM in assay [3] (setting [8]); 320 nM in assay [4]; 920 nM in assay [5].

For `COc1ccc(CNC(=O)CC(c2ccccc2)(c2ccccc2)c2ccccc2)c(OC)c1`, the IC50 in assay [1] was 7170 nM; in assay [2] (setting [7]) it was 520 nM; in assay [3] (setting [8]) it was 550 nM; in assay [4], 1870 nM; in assay [5], 2260 nM.

Turning to `C[C@]12C=CC(=O)C=C1CC[C@@H]1[C@@H]2C(=O)C[C@@]2(C)[C@H]1CC[C@]2(O)C(=O)CO` [Prednisone], the IC50 in assay [2] (setting [7]) and in assay [3] (setting [8]) was over 100000 nM throughout.

`COc1cccc(CCNC(=O)CC(c2ccccc2)(c2ccccc2)c2ccccc2)c1` [drawing 74]: the IC50 in assay [2] (setting [9]) is 1340 nM; in assay [3] (setting [10]) it was 850 nM.

Regarding `O=C(/C=C/c1ccccc1)NC[C@@H](O)c1ccc(O)cc1` [Compound 13-A], in assay [6], the “Induction of death in U-937 cells (percentages of cell death)” value (“Induction … (percentages of cell death)” for short) was 43%.

Take `COc1cccc(/C=C/C(=O)NC[C@H](O)c2ccc(O)cc2)c1` [Compound 15-H]: in assay [6], the “Induction … (percentages of cell death)” value is listed as 24%.

Turning to `COc1cc(/C=C/C(=O)NC[C@H](OC)c2ccc(O)cc2)ccc1O` [Compound 11-D], the “Induction … (percentages of cell death)” value in assay [6] stood at 34%.

For `O=C(CC(c1ccccc1)(c1ccccc1)c1ccccc1)NCCc1cccnc1`, the IC50 was 930 nM in assay [1]; 700 nM in assay [2] (setting [7]); 1610 nM in assay [3] (setting [8]); 680 nM in assay [4]; 1390 nM in assay [5].

Turning to `O=C(/C=C/c1ccc(O)c(O)c1)NCCc1ccccc1` [Compound 16-C], in assay [6], the “Induction … (percentages of cell death)” value stood at 24%.

`O=C(/C=C/c1ccc(O)c(O)c1)NC[C@H](O)c1ccc(O)cc1` [Compound 15-C]: in assay [6], the “Induction … (percentages of cell death)” value is −29%.

In the case of `COc1ccc(/C=C/C(=O)NC[C@H](OC)c2ccc(O)cc2)cc1O` [Compound 11-E], the “Induction … (percentages of cell death)” value in assay [6] was determined as 41%.

Regarding `COc1ccc(CCNC(=O)/C=C/c2cccc(OC)c2)cc1` [Compound 18-H], the “Induction … (percentages of cell death)” value in assay [6] is on record as 56%.

With `COc1ccc([C@H](O)CNC(=O)/C=C/c2cc(OC)c(OC)c(OC)c2)cc1` [Compound 14-F], the “Induction … (percentages of cell death)” value in assay [6] is 26%.

As for `COc1ccc([C@@H](CNC(=O)/C=C/c2ccccc2)OC)cc1` [Compound 10-A], the “Induction … (percentages of cell death)” value in assay [6] is 51%.

On to `COc1cc(/C=C/C(=O)NCCc2ccccc2)cc(OC)c1O` [Compound 16-G], for which the “Induction … (percentages of cell death)” value in assay [6] is given as 20%.

With `COc1cccc(/C=C/C(=O)NC[C@@H](OC)c2ccc(O)cc2)c1` [Compound 9-H], in assay [6], the “Induction … (percentages of cell death)” value worked out at 38%.

As for `O=C(/C=C/c1ccccc1)NC[C@H](O)c1ccc(O)cc1` [Compound 15-A], the “Induction … (percentages of cell death)” value in assay [6] is on record as 27%.

For `COc1cc(/C=C/C(=O)NC[C@@H](OC)c2ccccc2)ccc1O` [Compound 8-D], the “Induction … (percentages of cell death)” value in assay [6] turned out to be 20%.

For the compound `CO[C@H](CNC(=O)/C=C/c1ccccc1)c1ccccc1` [Compound 8-A], the “Induction … (percentages of cell death)” value in assay [6] was found to be 70%.

For the compound `O=C(NC12CC3CC(CC(C3)C1)C2)C(c1ccccc1)(c1ccccc1)c1ccccc1` [drawing 78], the IC50 turned out to be 480 nM in assay [1]; 2410 nM in assay [2] (setting [7]); 15700 nM in assay [3] (setting [8]); 590 nM in assay [4]; 850 nM in assay [5].

For the compound `COc1cc(/C=C/C(=O)NCCc2ccc(O)cc2)cc(OC)c1OC` [Compound 17-F], in assay [6], the “Induction … (percentages of cell death)” value is given as 9%.

Regarding `COc1cc(/C=C/C(=O)NC[C@@H](O)c2ccccc2)cc(OC)c1O` [Compound 12-G], the “Induction … (percentages of cell death)” value in assay [6] is reported as 41%.

For `COc1cc(/C=C/C(=O)NCCc2ccc(O)cc2)ccc1O` [Compound 17-D], the “Induction … (percentages of cell death)” value in assay [6] turned out to be 58%.

With `COc1ccc(CCNC(=O)/C=C/c2cc(OC)c(O)c(OC)c2)cc1` [Compound 18-G], the “Induction … (percentages of cell death)” value in assay [6] stood at 35%.

Consider `COc1cccc(/C=C/C(=O)NC[C@@H](OC)c2ccccc2)c1` [Compound 8-H], for which, in assay [6], the “Induction … (percentages of cell death)” value is given as 60%.

In the case of `O=C(/C=C/c1ccc(O)c(O)c1)NC[C@@H](O)c1ccccc1` [Compound 12-C], the “Induction … (percentages of cell death)” value in assay [6] was 27%.

As for `COc1ccc(/C=C/C(=O)NC[C@H](O)c2ccc(O)cc2)cc1O` [Compound 15-E], the “Induction … (percentages of cell death)” value in assay [6] is 22%.

`COc1ccc([C@H](O)CNC(=O)/C=C/c2cc(OC)c(O)c(OC)c2)cc1` [Compound 14-G]: in assay [6], the “Induction … (percentages of cell death)” value came out at 48%.

For the compound `COc1cc([C@@H]2c3cc4c(cc3[C@@H](O[C@@H]3O[C@@H]5CO[C@@H](C)O[C@H]5[C@H](O)[C@H]3O)[C@H]3COC(=O)[C@H]23)OCO4)cc(OC)c1O` [Etoposide], the IC50 in assay [2] (setting [7]) and in assay [3] (setting [8]) was over 100000 nM in each case.

Take `COc1ccc(/C=C/C(=O)NCCc2ccc(O)cc2)cc1O` [Compound 17-E]: the “Induction … (percentages of cell death)” value in assay [6] stood at 18%.

For `O=C(NCCc1ccccc1)C(c1ccccc1)(c1ccccc1)c1ccccc1` [drawing 73], the figures for the IC50 in assay [2] (setting [9]) and in assay [3] (setting [10]) were 490 nM and 420 nM, respectively.

Take `O=C(/C=C/c1ccccc1)NCCc1ccc(O)cc1` [Compound 17-A]: the “Induction … (percentages of cell death)” value in assay [6] is recorded as 48%.

As to `COc1cc(/C=C/C(=O)NC[C@@H](OC)c2ccc(O)cc2)cc(OC)c1O` [Compound 9-G], the “Induction … (percentages of cell death)” value in assay [6] was −7%.

Regarding `O=C(/C=C/c1ccc(O)cc1)NC[C@H](O)c1ccc(O)cc1` [Compound 15-B], in assay [6], the “Induction … (percentages of cell death)” value came to 39%.

Take `CO[C@@H](CNC(=O)/C=C/c1ccccc1)c1ccc(O)cc1` [Compound 11-A]: the “Induction … (percentages of cell death)” value in assay [6] was 26%.

As for `O=C(/C=C/c1ccc(O)c(O)c1)NC[C@@H](O)c1ccc(O)cc1` [Compound 13-C], the “Induction … (percentages of cell death)” value in assay [6] is recorded as −36%.

As for `COc1cc(/C=C/C(=O)NC[C@H](O)c2ccc(O)cc2)cc(OC)c1OC` [Compound 15-F], the “Induction … (percentages of cell death)” value in assay [6] was determined as 12%.

`CO[C@@H](CNC(=O)/C=C/c1ccc(O)cc1)c1ccc(O)cc1` [Compound 11-B]: in assay [6], the “Induction … (percentages of cell death)” value is recorded as 60%.

Take `COc1ccc([C@H](O)CNC(=O)/C=C/c2ccc(O)cc2)cc1` [Compound 14-B]: the “Induction … (percentages of cell death)” value in assay [6] is reported as 27%.

Take `COc1cc(/C=C/C(=O)NC[C@@H](OC)c2ccccc2)cc(OC)c1O` [Compound 8-G]: in assay [6], the “Induction … (percentages of cell death)” value is −3%.

For `COc1cc(/C=C/C(=O)NC[C@H](OC)c2ccc(O)cc2)cc(OC)c1OC` [Compound 11-F], the “Induction … (percentages of cell death)” value in assay [6] is listed as 27%.

Take `COc1ccc(CCNC(=O)/C=C/c2ccccc2)cc1` [Compound 18-A]: the “Induction … (percentages of cell death)” value in assay [6] was 56%.

`O=C(NC12CC3CC(CC(C3)C1)C2)C(c1ccccc1)(c1ccccc1)c1ccccc1` [drawing 75]: the IC50 came to 2400 nM in assay [2] (setting [9]) and 15600 nM in assay [3] (setting [10]).

On to `COc1ccc(/C=C/C(=O)NC[C@@H](OC)c2ccccc2)cc1O` [Compound 8-E], for which the “Induction … (percentages of cell death)” value in assay [6] stood at 56%.
